From publication PMC7006680, “Sulfocoumarins as dual inhibitors of human carbonic anhydrase isoforms IX/XII and of human thioredoxin reductase” (Journal of Enzyme Inhibition and Medicinal Chemistry, 2020)

Tests used:
[1] = system: HT-1080 (human fibrosarcoma); assay: MTT cytotoxicity assay, HT-1080; assay type: cell-based
Description: (§1) About 2000–4000 cells per well (depending on line nature) were placed in 96-well plates and after 24 h compounds were added to the wells. Untreated cells were used as a control. The plates were incubated for 48 h, 37 °C, and 5% CO2. The number of surviving cells was determined using 3-(4,5-dimethylthiazol-2-yl)-2,5-diphenyltetrazolinium bromide (MTT). MTT-test: after incubating culture medium was removed and 200 µL fresh medium with 20 µL MTT (2 mg/mL in HBSS) was added in each well of the plate. After incubation (3 h, 37 °C, 5% CO2), the medium with MTT was removed and 200 µL DMSO were added at once to each sample. The samples were tested at 540 nm on Thermo Scientific Multiskan EX microplate photometer. The half-maximal inhibitory concentration (IC50) of each compound was calculated using Graph Pad Prism® 3.0 (GraphPad Software, La Jolla, CA).

[2] = system: SHSY5Y (human neuroblastoma); assay: MTT cytotoxicity assay, SHSY5Y; assay type: cell-based; details: 48 h incubation
Description: as §1

[3] = system: MCF-7 (breast adenocarcinoma); assay: MTT cytotoxicity assay, MCF-7; assay type: cell-based, human
Description: as §1

TrxR = target: T1, TrxR (Homo sapiens, UniProt Q16881); assay: TrxR activity by DTNB reduction assay in SHSY5Y cell lysate; assay type: biochemical
T1 sequence (Q16881 1-649): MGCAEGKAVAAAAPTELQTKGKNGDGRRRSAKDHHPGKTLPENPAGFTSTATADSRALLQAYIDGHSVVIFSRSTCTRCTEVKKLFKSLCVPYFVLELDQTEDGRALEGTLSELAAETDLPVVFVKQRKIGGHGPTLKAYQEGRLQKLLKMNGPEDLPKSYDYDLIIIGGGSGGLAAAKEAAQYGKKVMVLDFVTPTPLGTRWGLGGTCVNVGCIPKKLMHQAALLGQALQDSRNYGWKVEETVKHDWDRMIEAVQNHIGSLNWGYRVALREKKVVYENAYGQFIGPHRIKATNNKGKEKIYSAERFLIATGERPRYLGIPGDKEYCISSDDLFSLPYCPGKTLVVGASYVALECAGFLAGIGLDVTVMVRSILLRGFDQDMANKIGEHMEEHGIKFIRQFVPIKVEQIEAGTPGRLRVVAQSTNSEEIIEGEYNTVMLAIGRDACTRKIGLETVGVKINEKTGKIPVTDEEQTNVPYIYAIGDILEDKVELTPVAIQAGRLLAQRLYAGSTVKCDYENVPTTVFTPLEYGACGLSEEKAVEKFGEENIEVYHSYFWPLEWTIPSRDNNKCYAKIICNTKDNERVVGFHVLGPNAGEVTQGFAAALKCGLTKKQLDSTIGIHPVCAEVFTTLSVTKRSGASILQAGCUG
Description: Determination of TrxR activity in SHSY5Y cell lysate. TrxR activity in cell lysate was measured in 96-well plates using previously described methods[27]^,[28]. For TrxR activity measurement, compounds of different concentrations were incubated with 50 µg of cell lysate and 200 µM NADPH in a volume of 100 µL of 50 mM Tris–HCl and 1 mM EDTA, pH 7.5 (TE buffer), for different time points in 96-well plates at room temperature. […] TrxR activity was calculated as a percentage of enzyme activity of that of DMSO vehicle treated sample.

hCA I = target: T2, hCA I (Homo sapiens, UniProt P00915); assay: Stopped-flow CO2 hydration CA inhibition assay, hCA I; assay type: biochemical; details: recombinant enzyme, 15 min pre-incubation
T2 construct: made in house
T2 sequence (P00915 whole entry): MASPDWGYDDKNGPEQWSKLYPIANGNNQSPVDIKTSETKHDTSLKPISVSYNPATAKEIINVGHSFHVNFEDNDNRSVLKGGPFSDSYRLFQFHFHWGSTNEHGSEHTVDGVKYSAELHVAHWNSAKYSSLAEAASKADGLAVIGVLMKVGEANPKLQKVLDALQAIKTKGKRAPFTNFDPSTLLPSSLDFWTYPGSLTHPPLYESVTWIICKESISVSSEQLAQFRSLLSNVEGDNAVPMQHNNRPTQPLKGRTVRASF
Description: (§2) An Applied Photophysics stopped-flow instrument has been used for assaying the CA catalysed CO2 hydration activity[22]. Phenol red (at a concentration of 0.2 mM) has been used as indicator, working at the absorbance maximum of 557 nm, with 20 mM Tris (pH 8.3) as buffer, and 20 mM Na2SO4 (for maintaining constant the ionic strength), following the initial rates of the CA-catalysed CO2 hydration reaction for a period of 10–100 s. The CO2 concentrations ranged from 1.7 to 17 mM for the determination of the kinetic parameters and inhibition constants. […] The uncatalysed rates were determined in the same manner and subtracted from the total observed rates. Stock solutions of inhibitor (0.1 mM) were prepared in distilled-deionised water and dilutions up to 0.005 nM were done thereafter with the assay buffer. Inhibitor and enzyme solutions were pre-incubated together for 15 min at room temperature prior to assay, in order to allow for the formation of the E–I complex. The inhibition constants were obtained by non-linear least-squares methods using PRISM 3 and the Cheng-Prusoff equation, as reported earlier, and represent the mean from at least three different determinations.

hCA II = target: T3, hCA II (Homo sapiens, UniProt P00918); assay: Stopped-flow CO2 hydration CA inhibition assay, hCA II; assay type: biochemical; details: recombinant enzyme, 15 min pre-incubation
T3 construct: made in house
Description: as §2

hCA IX = target: T4, hCA IX (Homo sapiens, UniProt Q16790); assay: Stopped-flow CO2 hydration CA inhibition assay, hCA IX; assay type: biochemical; details: recombinant enzyme, 15 min pre-incubation
T4 construct: made in house
Description: as §2

hCA XII = target: T5, hCA XII (Homo sapiens, UniProt O43570); assay: Stopped-flow CO2 hydration CA inhibition assay, hCA XII; assay type: biochemical; details: recombinant enzyme, 15 min pre-incubation
T5 construct: made in house
T5 sequence (O43570 25-354): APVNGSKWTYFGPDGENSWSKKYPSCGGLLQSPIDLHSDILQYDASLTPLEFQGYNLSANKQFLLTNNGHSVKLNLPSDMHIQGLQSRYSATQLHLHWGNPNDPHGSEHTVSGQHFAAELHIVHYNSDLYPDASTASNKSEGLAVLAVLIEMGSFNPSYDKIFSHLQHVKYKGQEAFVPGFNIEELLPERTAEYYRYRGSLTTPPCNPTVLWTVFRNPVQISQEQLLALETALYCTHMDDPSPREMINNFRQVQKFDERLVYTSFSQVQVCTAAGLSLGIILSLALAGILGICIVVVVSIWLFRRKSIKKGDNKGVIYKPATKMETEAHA
Description: as §2

[4] = Homo sapiens, HT-1080, 48 h incubation
[5] = Homo sapiens, MCF7, 48 h incubation

1-(2,2-Dioxido-1,2-benzoxathiin-6-yl)-5-(4-fluorophenyl)-1H-1,2,3-triazole [Compound 1d]
IC50 ([1]; 48 h incubation): 7.9 µM
IC50 [2]: 18.5 µM
IC50 ([3]; 48 h incubation): 50 µM
IC50 (TrxR): 125 µM
Ki (hCA I): > 10 µM
Ki (hCA II): > 10 µM

O=S1(=O)C=Cc2cc(-c3nnnn3-c3ccccc3)ccc2O1 [Compound 1c, 5-(2,2-Dioxido-1,2-benzoxathiin-6-yl)-1-phenyl-1H-tetrazole]
IC50 [1, 4]: 12.3 µM
IC50 ([2]; Homo sapiens, SH-SY5Y): 18.4 µM
IC50 [3, 5]: 101 µM
Ki (hCA IX): 0.0085 µM
Ki (hCA XII): 0.0071 µM

O=S1(=O)C=Cc2cc(-n3cc(-c4ccc(Cl)cc4)nn3)ccc2O1 [Compound 1a, 4-(4-Chlorophenyl)-1-(2,2-dioxido-1,2-benzoxathiin-6-yl)-1H-1,2,3-triazole]
IC50 [1, 4]: 11 µM
IC50 ([2]; Homo sapiens, SH-SY5Y): 22 µM
IC50 [3, 5]: 1.8 µM
Ki (hCA IX): 0.0078 µM
Ki (hCA XII): 0.0177 µM

1-(2,2-Dioxido-1,2-benzoxathiin-6-yl)-4-(4-fluorophenyl)-1H-1,2,3-triazole [Compound 1b]
IC50 (TrxR): 40 µM
Ki (hCA I): > 10 µM
Ki (hCA II): > 10 µM
